Source: US20160039802A1, “3-PYRIMIDIN-4-YL-OXAZOLIDIN-2-ONES AS INHIBITORS OF MUTANT IDH” (NOVARTIS AG, priority 2013, published 2016)

Target: T1, Mutant IDH1 R132H (Homo sapiens, UniProt O75874, R132H)
T1 construct: His6 with PreScission site (N, cleaved yes); made in house; host or cells: E. coli Rosetta 2(DE3)
Test: Mutant IDH1 biochemical assay: LC-MS detection of 2-HG; note: mIDH R132H 0.25 nM, 5 µM NADPH
Details: mIDH R132H […], 5 uM NADPH, 100 uM alpha-KG, 45 minutes incubation; range where run multiple times
From the text: Mutant IDH1 biochemical Sssay: LC-MS Detection of 2-HG.

T1 sequence (O75874 whole entry R132H): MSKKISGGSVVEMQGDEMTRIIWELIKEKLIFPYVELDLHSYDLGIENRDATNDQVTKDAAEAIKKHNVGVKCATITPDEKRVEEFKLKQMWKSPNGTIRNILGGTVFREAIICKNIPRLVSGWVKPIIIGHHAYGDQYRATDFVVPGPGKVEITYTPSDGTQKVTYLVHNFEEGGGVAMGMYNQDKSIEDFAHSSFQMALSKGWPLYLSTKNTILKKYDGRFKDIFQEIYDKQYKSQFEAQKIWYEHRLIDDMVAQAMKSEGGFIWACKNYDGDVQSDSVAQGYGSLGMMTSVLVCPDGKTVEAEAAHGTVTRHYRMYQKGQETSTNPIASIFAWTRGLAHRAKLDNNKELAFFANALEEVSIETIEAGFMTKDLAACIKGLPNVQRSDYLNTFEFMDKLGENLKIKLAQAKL

Structure (SMILES)	IC50
C[C@H](Nc1nccc(N2C(=O)OC[C@]2(C)C2CC2)n1)c1ccc(CN2CCC(O)(C(F)(F)F)CC2)c(F)c1 [Example 32, (S)-4-cyclopropyl-3-(2-(((S)-1-(3-fluoro-4-((4-hydroxy-4-(trifluoromethyl)piperidin-1-yl)methyl)phenyl)ethyl)amino)pyrimidin-4-yl)-4-methyloxazolidin-2-one]	0.0133 µM
C[C@H](Nc1nccc(N2C(=O)OC[C@]2(C)C2CC2)n1)c1ccc(CN2CCC(C)(O)CC2)c(F)c1 [Example 31, (S)-4-cyclopropyl-3-(2-(((S)-1-(3-fluoro-4-((4-hydroxy-4-methylpiperidin-1-yl)methyl)phenyl)ethyl)amino)pyrimidin-4-yl)-4-methyloxazolidin-2-one]	0.267 µM

Further lines, results first:

IC50	Structure (SMILES)
0.151 µM	C[C@H](Nc1nccc(N2C(=O)OC[C@]2(C)C2CC2)n1)c1ccc(CN2CCC(C)(N)CC2)c(F)c1 [Example 43, (S)-3-(2-(((S)-1-(4-((4-amino-4-methylpiperidin-1-yl)methyl)-3-fluorophenyl)ethyl)amino)pyrimidin-4-yl)-4-cyclopropyl-4-methyloxazolidin-2-one]
3.16 to 3.26 µM	CC(Nc1nccc(N2C(=O)OC[C@@]2(C)C2CC2)n1)c1nc(-c2ccc(Cl)cc2)no1 (single isomer, unassigned) [Example 51]
0.0326 to 0.054 µM	CC(Nc1nccc(N2C(=O)OC[C@@]2(C)C2CC2)n1)c1nc(-c2ccc(Cl)cc2)no1 (single isomer, unassigned) [Example 52]
2.52 µM	CC(Nc1nccc(N2C(=O)OC[C@]2(C)C2CC2)n1)c1nc(-c2ccc(Cl)cc2)no1 (single isomer, unassigned) [Example 49]
> 5 µM	Cc1cc(-c2cnc(C(C)Nc3nccc(N4C(=O)OC[C@]4(C)C4CC4)n3)nc2)ccc1F (single isomer, unassigned) [Example 54]
0.527 µM	C[C@H](Nc1nccc(N2C(=O)OCC2(C)C2CC2)n1)c1ccc(CN2CCN(C)C(C)(C)C2)cc1 (single isomer, unassigned) [Example 56]
0.703 µM	C[C@H](Nc1nccc(N2C(=O)OCC2(C)C2CC2)n1)c1ccc(CN2CCN(C)CC2)cc1 (single isomer, unassigned) [Example 47]
0.0779 µM	C[C@H](Nc1nccc(N2C(=O)OCC2(C)C2CC2)n1)c1ccc(CN2CCN(C)C(C)(C)C2)cc1 (single isomer, unassigned) [Example 55]

Target: T2, IDH1 (R132H) mutant (Homo sapiens, UniProt O75874, R132H)
T2 construct: His6 with PreScission site (N, cleaved yes); made in house; host or cells: E. coli Rosetta 2(DE3)
T2 sequence (O75874 whole entry R132H): as above
Test: Fluorescence biochemical assay (NADPH oxidation)
Details: mIDH R132H 10 nM, 10 μM NADPH, 100 μM α-KG; range where run multiple times
Description: The IDH1 (R132H) mutant catalyzes the reduced form of NADP+ (NADPH) and α-ketoglutarate (α-KG) to form nicotinamide adenine dinucleotide phosphate (NADP+) and R(−)-2-hydroxyglutarate (2HG). […] Reactions were monitored using the Perkin-Elmer Envision, Model 2101. […] The final reaction mixture contained 2.5% DMSO and test compounds with concentrations ranging 0.0000008-25 μM. The IDH1 (R132H) enzyme was used at a final concentration of 10 nM. Curve fitting for dose response […] determinations was done in the Helios module of the software package DAVID. The 4-parameter logistic model was used: y=min+((max−min)/1+(x/IC50)^shape)

Structure (SMILES)	IC50
C[C@H](Nc1nccc(N2C(=O)OC[C@@H]2C2CC2)n1)c1cnc(-c2ccc(C(F)(F)F)nc2)s1 [Example 14, (S)-4-cyclopropyl-3-(2-(((S)-1-(2-(6-(trifluoromethyl)pyridin-3-yl)thiazol-5-yl)ethyl)amino)pyrimidin-4-yl)oxazolidin-2-one]	0.0491 µM
Cc1cc(N2C(=O)OC[C@@H]2C2CC2)nc(N[C@H](C)c2cn(-c3ccc(Cl)cc3)nn2)n1 [Example 12, (S)-3-(2-(((R)-1-(1-(4-chlorophenyl)-1H-1,2,3-triazol-4-yl)ethyl)amino)-6-methylpyrimidin-4-yl)-4-cyclopropyloxazolidin-2-one]	0.323 µM
C[C@H](Nc1nc(Cl)cc(N2C(=O)OC[C@@H]2C2CC2)n1)c1ccccc1 [Example 2, (S)-3-(6-chloro-2-((S)-1-phenylethylamino)pyrimidin-4-yl)-4-cyclopropyloxazolidin-2-one]	0.316 µM
C[C@H](Nc1nccc(N2C(=O)OC[C@@H]2C2CC2)n1)c1cnc(-c2ccnc(C(F)(F)F)c2)s1 [Example 15, (S)-4-cyclopropyl-3-(2-(((S)-1-(2-(2-(trifluoromethyl)pyridin-4-yl)thiazol-5-yl)ethyl)amino)pyrimidin-4-yl)oxazolidin-2-one]	0.108 µM
C[C@H](Nc1nc(Cl)cc(N2C(=O)OC[C@@H]2C2CC2)n1)c1cnn(-c2ccc(Cl)cc2)c1 [Example 5, (S)-3-(6-chloro-2-(((S)-1-(1-(4-chlorophenyl)-1H-pyrazol-4-yl)ethyl)amino)pyrimidin-4-yl)-4-cyclopropyloxazolidin-2-one]	0.0332 µM
C[C@H](Nc1ncc(F)c(N2C(=O)OC[C@@H]2C2CC2)n1)c1cnc(C(C)(F)F)c(Cl)c1 [Example 22, (S)-3-(2-((S)-1-(5-chloro-6-(1,1-difluoroethyl)pyridin-3-yl)ethylamino)-5-fluoropyrimidin-4-yl)-4-cyclopropyloxazolidin-2-one]	1.14 µM
C[C@H](Nc1nccc(N2C(=O)OC[C@@H]2C2CC2)n1)c1nc(-c2ccc(Cl)cc2)no1 [Example 28, (S)-3-(2-((S)-1-(3-(4-chlorophenyl)-1,2,4-oxadiazol-5-yl)ethylamino)pyrimidin-4-yl)-4-cyclopropyloxazolidin-2-one]	0.0627 µM
C[C@H](Nc1nc(Cl)cc(N2C(=O)OC[C@@H]2C2CC2)n1)c1cn(-c2ccc(Cl)cc2)cn1 [Example 26, (S)-3-(6-chloro-2-(((S)-1-(1-(4-chlorophenyl)-1H-imidazol-4-yl)ethyl)amino)pyrimidin-4-yl)-4-cyclopropyloxazolidin-2-one]	0.349 µM
C[C@H](Nc1nccc(N2C(=O)OC[C@@H]2C2CC2)n1)c1cnc(-c2ccc(C(F)F)cc2)s1 [Example 16, (S)-4-cyclopropyl-3-(2-(((S)-1-(2-(4-(difluoromethyl)phenyl)thiazol-5-yl)ethyl)amino)pyrimidin-4-yl)oxazolidin-2-one]	0.0292 µM
C[C@H](Nc1nccc(N2C(=O)OC[C@@H]2C2CC2)n1)c1ccn(-c2ccc(C(F)(F)F)nc2)n1 [Example 17, (S)-4-cyclopropyl-3-(2-(((S)-1-(1-(6-(trifluoromethyl)pyridin-3-yl)-1H-pyrazol-3-yl)ethyl)amino)pyrimidin-4-yl)oxazolidin-2-one]	0.169 µM
C[C@H](Nc1nccc(N2C(=O)OC[C@@H]2C2CC2)n1)c1ccccc1 [Example 23, (S)-4-cyclopropyl-3-(2-((S)-1-phenylethylamino)pyrimidin-4-yl)oxazolidin-2-one]	1.37 µM
C[C@H](Nc1ncc(F)c(N2C(=O)OC[C@@H]2C2CC2)n1)c1cnc(OCC(F)(F)F)c(Cl)c1 [Example 21, (S)-3-(2-((S)-1-(5-chloro-6-(2,2,2-trifluoroethoxy)pyridin-3-yl)ethylamino)-5-fluoropyrimidin-4-yl)-4-cyclopropyloxazolidin-2-one]	1.2 µM
C[C@H](Nc1nc(Cl)cc(N2C(=O)OC[C@@H]2C2CC2)n1)c1cnc(N2CCOCC2)s1 [Example 6, (S)-3-(6-chloro-2-(((S)-1-(2-morpholinothiazol-5-yl)ethyl)amino)pyrimidin-4-yl)-4-cyclopropyloxazolidin-2-one]	0.934 µM
C[C@H](Nc1nc(Cl)cc(N2C(=O)OC[C@@H]2C2CC2)n1)c1nnc(-c2ccc(Cl)cc2)s1 [Example 4, (S)-3-(6-chloro-2-(((S)-1-(5-(4-chlorophenyl)-1,3,4-thiadiazol-2-yl)ethyl)amino)pyrimidin-4-yl)-4-cyclopropyloxazolidin-2-one]	0.0248 µM
C[C@H](Nc1nc(F)cc(N2C(=O)OC[C@@H]2C2CC2)n1)c1ccccc1 [Example 1, (S)-4-cyclopropyl-3-(6-fluoro-2-((S)-1-phenylethylamino)pyrimidin-4-yl)oxazolidin-2-one]	0.365 µM
Cc1ccc(-c2ncc([C@H](C)Nc3nc(C)cc(N4C(=O)OC[C@@H]4C4CC4)n3)s2)cn1 [Example 13, (S)-4-cyclopropyl-3-(6-methyl-2-(((S)-1-(2-(6-methylpyridin-3-yl)thiazol-5-yl)ethyl)amino)pyrimidin-4-yl)oxazolidin-2-one]	0.191 µM
C[C@H](Nc1ncc(F)c(N2C(=O)OC[C@@H]2C2CC2)n1)c1nc(-c2ccc(Cl)cc2)no1 [Example 29, (S)-3-(2-((S)-1-(3-(4-chlorophenyl)-1,2,4-oxadiazol-5-yl)ethylamino)-5-fluoropyrimidin-4-yl)-4-cyclopropyloxazolidin-2-one]	0.124 µM
C[C@H](Nc1nccc(N2C(=O)OC[C@@H]2C2CC2)n1)c1cnc(OCC(F)(F)F)c(Cl)c1 [Example 25, (S)-3-(2-((S)-1-(5-chloro-6-(2,2,2-trifluoroethoxy)pyridin-3-yl)ethylamino)pyrimidin-4-yl)-4-cyclopropyloxazolidin-2-one]	0.372 µM
C[C@H](Nc1ncc(F)c(N2C(=O)OC[C@@H]2C2CC2)n1)c1ccccc1 [Example 24, (S)-4-cyclopropyl-3-(5-fluoro-2-((S)-1-phenylethylamino)pyrimidin-4-yl)oxazolidin-2-one]	1.19 µM

Continued, values first:

IC50	Structure (SMILES)
0.033 µM	C[C@H](Nc1nccc(N2C(=O)OC[C@]2(C)C2CC2)n1)c1ccc(CN2CCC(N3CCOCC3)CC2)c(F)c1 [Example 67, (S)-4-cyclopropyl-3-(2-(((S)-1-(3-fluoro-4-((4-morpholinopiperidin-1-yl)methyl)phenyl)ethyl)amino)pyrimidin-4-yl)-4-methyloxazolidin-2-one]
0.025 µM	C[C@H](Nc1nccc(N2C(=O)OC[C@@H]2C2CC2)n1)c1ccc(CN2CCC(N(C)C)C(F)(F)C2)c(F)c1 (stereo partly drawn) [Example 69, (4S)-4-cyclopropyl-3-(2-(((1S)-1-(4-((4-(dimethylamino)-3,3-difluoropiperidin-1-yl)methyl)-3-fluorophenyl)ethyl)amino)pyrimidin-4-yl)oxazolidin-2-one]
0.096 µM	C[C@H](Nc1nccc(N2C(=O)OC[C@]2(C)C2CC2)n1)c1ccc(CN2CCC(N3CCOCC3)CC2)cc1 [Example 68, (S)-4-cyclopropyl-4-methyl-3-(2-(((S)-1-(4-((4-morpholinopiperidin-1-yl)methyl)phenyl)ethyl)amino)pyrimidin-4-yl)oxazolidin-2-one]
